Experimental data published in patent US20230272077A1, “PD-1 SIGNAL INHIBITOR COMBINATION THERAPY” (KYOTO UNIVERSITY, priority 2015, published 2023).
Entries after “also recorded” stand apart in the source; their conditions may differ.

Assays:
MC38 = assay: Mouse therapy model, MC38-bearing mice (tumor volume, survival); type: in vivo; conditions: MC38-bearing mice
Experimental: MC38 (5×10^5) and MethA (5×10^5) cells were intradermally injected on the right flank. MC38 was inoculated into C57BL/6 mice and MethA was inoculated into BALB/c mice. For monotherapy, mice were intraperitoneally injected with 150 μg of PD-L1 mouse antibody (1-111A) (prepared by the laboratory of the present inventors) 5 days after the tumor inoculation. Therapy with PD-L1 antibody alone was repeated three times every 5 days. For combination therapy, administration of PD-L1 antibody and chemical agents started 7 days after tumor injection. Chemical agents were injected at a regular interval of 2 days and PD-L1 antibody at a regular interval of 5 days (shown in FIG. 3b). Tumors were measured on every alternate day, and tumor volumes were calculated using the formula for typical ellipsoid, π×(length×breadth×height/6).
The following chemical reagents were used at the indicated concentrations for combination therapy. AMPK activator: A769662, 6 mg/kg (Abcam); mTOR activator: MHY1485, 3 μg/kg (Sigma-Aldrich); uncoupler: carbonylcyanide-p-trifluoromethoxyphenylhydrazone (FCCP), 1.2 mg/kg (Abcam); uncoupler: 2,4-Dinitrophenol (DNP), 1.7 mg/kg (Aldrich); SIRT1 activator: resveratrol, 0.5 mg/kg (Abcam); ROS scavenger: Mn (III) tetrakis (4-benzoic acid) porphyrin (MnTBAP), 1.25 mg/kg (Calbiochem); ROS generator: tert-butyl hydroperoxide solution (Luperox TBH70X), 200 μL/kg (Sigma-Aldrich); ATP synthase inhibitor: oligomycin, 250 μg/kg (Sigma-Aldrich); paraquat 2 mg/kg (Nakalai Tesque); oltipraz 1.9 mg/kg (Sigma); bezafibrate 1 mg/kg (ChemCruz).
All reagents were freshly prepared just before use. Each reagent was dissolved in the solvent indicated in the instructions. Note that the AMPK activator, mTOR activator, uncouplers and SIRT1 activator were prepared from fresh unused vials in each series of experiments. Dissolved reagents were diluted in PBS, and a 200 l aliquot was injected per mouse.
(§1) Murine colon adenocarcinoma MC38 cells (5×10^5) were inoculated into C57BL/6 mice. After 7 days, anti-PD-L1 antibody (1-111A, 150 μg) and AMPK inhibitor (Compound C: 200 μg in BBS, 200 μL) were administered intraperitoneally. Anti-PD-L1 antibody was administered 3 times at a regular interval of 6 days; Compound C (C.C) was administered 7 times at a regular interval 2 days.
MC38 cells (5×10^5) were inoculated into C57BL/6 mice. After 7 days, anti-PD-L1 antibody (1-111A, 150 μg) and PGC-1α/transcription factor complex activator (2-(4-{2-[(4-chlorobenzoyl)amino]ethyl}phenoxy)-2-methylpropanoic acid (bezafibrate): 10 ug in PBS, 200 ul) were administered intraperitoneally. Anti-PD-L1 antibody was administered 3 times at a regular interval of 6 days; bezafibrate was administered 7 times at a regular interval 2 days.

RENCA = assay: RENCA-bearing BALB/c mice (tumor volume); type: in vivo, mouse; conditions: RENCA in BALB/c mice, combined with anti-PD-L1 antibody
Experimental: as §1, with “renal cell carcinoma RENCA” for “colon adenocarcinoma MC38”, “(2×10^6)” for “(5×10^5)”, “BALB/c” for “C57BL/6”, “l)” for “μL)”, “days. Tumor volumes (mm^3) from day 0 to day 25 of RENCA inoculation are shown.” for “days.”

[1] = system: AMPK and its associated proteins ACC and SIRT1; assay: Western blotting of DLN CD8+ T cells, AMPK pathway; type: in vivo, mouse; conditions: CD8+ T cells from mice treated with PD-L1 antibody and reagent
Experimental: (§2) FIG. 7. […] Phosphorylation of AMPK, ACC, mTOR and S6K and the expression of SIRT1 and 4EBP1 were analyzed by Western blotting. b) MC38-bearing mice were treated with PD-L1 antibody in combination with AMPK activator (A769662) and/or mTOR activator (MHY1485) according to the same schedule as shown in FIG. 3b.
(§3) CD8^+ T cells were isolated using mouse CD8 Microbeads (Miltenyi Biotec). After washing with PBS twice, 2×10^6 cells were solubilized in a lysis buffer containing 30 mM Tris-HCl (pH.7.4), 150 mM NaCl, 10% glycerol, 0.1% SDS, 1% Triton-X-100, 0.05% Na-Doc, 5 mM EDTA (pH.8.0), protease inhibitor mixture (Roche Molecular Biochemicals) and phosphatase inhibitors (Nacalai Tesque). After measurement of protein concentrations by DC protein assay (Bio-Rad), 4 μg of proteins was mounted on 4 to 20% gradient Mini-PROTEAN TGX Gels (Bio-Rad) and electroblotted onto nitrocellulose membranes, which were then incubated in a blocking buffer of TBS containing 1% BSA. Primary antibody incubations were carried out overnight at 4° C. in blocking buffer. After washing, secondary antibody incubations were carried out at room temperature for 40 min in blocking buffer. Blots were developed with enhanced chemiluminescence (Amersham Pharmacia). […]

[2] = system: mTOR and its associated proteins S6K and 4EBP1; assay: Western blotting of DLN CD8+ T cells, mTOR pathway; type: in vivo, mouse; conditions: CD8+ T cells from mice treated with PD-L1 antibody and reagent
Experimental: as §2, §3

[3] = used in 1930's; cited from earlier work
[4] = reagent combined with PD-L1 antibody vs PD-L1 antibody alone

| Compound | enhancement of antitumor effect of PD-L1 antibody (tumor volume) (MC38; [4]) | enhancement of antitumor effect of PD-L1 antibody (tumor volume) (MC38; reagent combined with PD-L1 antibody vs PD-L1 antibody alone, listed as compound C) | enhancement of efficacy of anti-PD-L1 antibody therapy (tumor volume) (RENCA) | enhancement of efficacy of anti-PD-L1 antibody therapy (tumor volume) (RENCA; listed as compound C) | antitumor activity of triple combination of PD-L1 antibody, DNP and Luperox (MC38; DNP and Luperox both with PD-L1 antibody) | antitumor effect when administered alone (MC38; reagent alone, no PD-L1 antibody, tumor volume) | survival rate (MC38; [4]) | activation of AMPK and its associated proteins ACC and SIRT1 [1] | activation of mTOR and its associated proteins S6K and 4EBP1 [2] | health problems in use as diet supplement [3] |
| --- | --- | --- | --- | --- | --- | --- | --- | --- | --- | --- |
| c1cc(-c2cnn3cc(-c4ccc(OCCN5CCCCC5)cc4)cnc23)ccn1 [AMPK inhibitor, 6-[4-[2-(1-Piperidinyl)ethoxy]phenyl]-3-(4-pyridinyl)pyrazolo[1,5-a]pyrimidine] | enhances the efficacy of anti-PD-L1 antibody therapy | Synergistic effect | enhances the efficacy of anti-PD-L1 antibody therapy | Synergistic effect | – | – | – | – | – | – |
| O=[N+]([O-])c1ccc(O)c([N+](=O)[O-])c1 [DNP, 2,4-dinitrophenol] | augmented the efficacy of PD-L1 antibody therapy; also recorded: enhance the antitumor effect of PD-L1 antibody | – | – | – | stronger antitumor activity; also recorded: Antitumor effect is enhanced | failed to exhibit any antitumor effect | remarkably improved the survival rate | activated | also found to be activated | caused severe health problems |
